In ChEMBL document CHEMBL1152063, “4-Substituted proline derivatives that inhibit angiotensin converting enzyme and neutral endopeptidase 24.11” (Bioorg Med Chem Lett, 1994):

Tests used:
[1] = target: T1, Neprilysin (Rattus norvegicus, UniProt P07861); assay: In vitro inhibition against neutral endopeptidase 24.11 (NEP) in rat kidney cortex membrane; type: cell membranes
T1 sequence (P07861 whole entry): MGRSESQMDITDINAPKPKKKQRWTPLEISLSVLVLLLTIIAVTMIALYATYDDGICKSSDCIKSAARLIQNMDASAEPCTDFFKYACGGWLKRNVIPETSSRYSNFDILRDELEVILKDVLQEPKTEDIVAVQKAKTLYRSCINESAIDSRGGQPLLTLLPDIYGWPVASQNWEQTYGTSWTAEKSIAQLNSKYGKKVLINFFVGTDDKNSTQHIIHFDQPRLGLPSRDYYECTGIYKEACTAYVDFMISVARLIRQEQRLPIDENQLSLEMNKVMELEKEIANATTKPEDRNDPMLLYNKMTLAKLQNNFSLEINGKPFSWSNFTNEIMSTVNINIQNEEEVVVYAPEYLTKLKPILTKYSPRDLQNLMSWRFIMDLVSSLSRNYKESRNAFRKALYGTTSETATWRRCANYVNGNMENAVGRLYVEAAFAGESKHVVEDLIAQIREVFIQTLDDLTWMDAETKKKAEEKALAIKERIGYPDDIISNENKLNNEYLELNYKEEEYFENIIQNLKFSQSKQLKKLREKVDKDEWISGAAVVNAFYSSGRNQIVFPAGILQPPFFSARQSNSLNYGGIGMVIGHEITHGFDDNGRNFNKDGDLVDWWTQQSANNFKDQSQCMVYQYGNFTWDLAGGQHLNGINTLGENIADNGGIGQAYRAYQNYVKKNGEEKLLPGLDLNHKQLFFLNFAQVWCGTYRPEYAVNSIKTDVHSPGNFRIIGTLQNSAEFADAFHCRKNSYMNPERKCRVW

[2] = target: Angiotensin-converting enzyme (Homo sapiens, UniProt P12821); assay: In vitro inhibition against angiotensin converting enzyme (ACE)
Angiotensin-converting enzyme, sequence (P12821 whole entry): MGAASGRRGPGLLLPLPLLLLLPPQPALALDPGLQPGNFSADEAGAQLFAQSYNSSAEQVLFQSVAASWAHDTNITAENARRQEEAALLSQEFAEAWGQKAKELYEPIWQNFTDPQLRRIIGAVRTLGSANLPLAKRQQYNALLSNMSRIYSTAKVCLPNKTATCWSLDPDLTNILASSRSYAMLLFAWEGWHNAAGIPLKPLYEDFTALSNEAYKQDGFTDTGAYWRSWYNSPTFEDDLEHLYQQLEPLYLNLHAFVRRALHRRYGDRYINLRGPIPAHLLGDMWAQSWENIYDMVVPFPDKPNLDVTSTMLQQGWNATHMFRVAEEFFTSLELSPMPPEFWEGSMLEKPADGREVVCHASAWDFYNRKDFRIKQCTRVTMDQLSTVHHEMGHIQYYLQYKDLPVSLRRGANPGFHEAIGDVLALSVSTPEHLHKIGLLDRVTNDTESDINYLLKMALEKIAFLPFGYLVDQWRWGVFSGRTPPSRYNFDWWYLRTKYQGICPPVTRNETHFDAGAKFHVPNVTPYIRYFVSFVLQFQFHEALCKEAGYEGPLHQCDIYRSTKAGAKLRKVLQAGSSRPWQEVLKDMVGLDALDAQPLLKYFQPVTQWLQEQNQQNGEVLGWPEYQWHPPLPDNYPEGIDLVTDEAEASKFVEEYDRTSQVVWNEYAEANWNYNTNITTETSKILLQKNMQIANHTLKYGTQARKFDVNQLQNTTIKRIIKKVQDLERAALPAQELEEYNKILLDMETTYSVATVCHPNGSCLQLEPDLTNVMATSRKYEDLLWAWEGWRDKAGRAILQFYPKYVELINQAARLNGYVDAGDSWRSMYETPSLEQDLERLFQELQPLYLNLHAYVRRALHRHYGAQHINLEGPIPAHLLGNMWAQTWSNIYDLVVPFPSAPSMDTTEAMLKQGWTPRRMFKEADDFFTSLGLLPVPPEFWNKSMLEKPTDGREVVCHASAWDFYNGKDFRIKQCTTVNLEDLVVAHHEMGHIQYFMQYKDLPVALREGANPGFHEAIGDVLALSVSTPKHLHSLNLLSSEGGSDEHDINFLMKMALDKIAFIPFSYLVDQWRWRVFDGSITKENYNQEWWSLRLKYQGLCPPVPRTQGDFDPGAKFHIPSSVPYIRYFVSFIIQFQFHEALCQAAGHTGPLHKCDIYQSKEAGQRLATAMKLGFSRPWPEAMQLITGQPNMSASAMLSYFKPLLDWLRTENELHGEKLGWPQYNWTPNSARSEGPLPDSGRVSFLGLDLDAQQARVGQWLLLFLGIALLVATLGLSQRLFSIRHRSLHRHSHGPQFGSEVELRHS

| Structure (SMILES) | IC50 [1] | IC50 [2] | Ki [1] |
| --- | --- | --- | --- |
| O=C(O)CCCCCCNC(=O)C(CS)Cc1ccccc1 (configuration not stated) |  |  | 26 nM |
| C[C@H](N[C@@H](CCc1ccccc1)C(=O)O)C(=O)N1C[C@@H](NC(=O)NC(CS)Cc2ccccc2)C[C@H]1C(=O)O (some centres not stated) | 1240 nM | 43 nM |  |
| C[C@H](N[C@@H](CCc1ccccc1)C(=O)O)C(=O)N1C[C@H](OC(=O)NC(CS)Cc2ccccc2)C[C@H]1C(=O)O (some centres not stated) | > 1000 nM | 506 nM |  |
| C[C@H](N[C@@H](CCc1ccccc1)C(=O)O)C(=O)N1C[C@H](NC(=O)C(CS)Cc2ccccc2)C[C@H]1C(=O)O (some centres not stated) | > 1000 nM | 253 nM |  |
| C[C@H](CS)C(=O)N1C[C@H](NC(=O)C(CS)Cc2ccccc2)C[C@H]1C(=O)O (some centres not stated) | 849 nM | 18 nM |  |

Now from value to compound:

| IC50 [1] | IC50 [2] | Ki [1] | Structure (SMILES) |
| --- | --- | --- | --- |
| 149 nM | 42 nM |  | C[C@H](N[C@@H](CCc1ccccc1)C(=O)O)C(=O)N1C[C@@H](NC(=O)C(CS)Cc2ccccc2)C[C@H]1C(=O)O (some centres not stated) |
| 14 nM | 87 nM |  | C[C@H](CS)C(=O)N1C[C@@H](NC(=O)C(CS)Cc2ccccc2)C[C@H]1C(=O)O (some centres not stated) |
| 118 nM | 147 nM |  | C[C@H](CS)C(=O)N1C[C@@H](NC(=O)NC(CS)Cc2ccccc2)C[C@H]1C(=O)O (some centres not stated) |
| 20 nM | 696 nM |  | C[C@H](CS)C(=O)N1C[C@@H](NC(=O)C(CS)Cc2ccc(-c3ccccc3)cc2)C[C@H]1C(=O)O (some centres not stated) |
